Measured values taken from patent publication US11173144B2, “Adrenergic receptor modulating compounds and methods of using the same” (The Board of Trustees of the Leland Stanford Junior …, priority 2016, dated 2021).

Legend:
[1] = tested on: LPS-induced TNF-α production in primary microglia; experiment: In vitro primary microglia TNF-α assay (LPS stimulation, ELISA); type: cell-based, rat; conditions: rat primary microglia, LPS 10 ng/ml, compound 10 μM, 4 h; read-out: inhibition of LPS-induced TNF-α production
Source text: Mixed glial cells are obtained from the cerebral cortex of Sprague Dawley rat pups at postnatal days 1-3. Briefly, neonates are euthanized by decapitation and their brain tissues are collected for isolation of cortex. The isolated cortex was then trypsinized, triturated, and placed onto tissue culture flasks in DMEM supplemented with 10% fetal bovine serum and 1% Penicillin/Streptomycin. After 10 days in vitro, microglia are harvested by gentle shaking of the growth flask, plated in a 96 well plate at a density of 30,000 cells/well, and incubated at 37° C. overnight. […] Following the 4 h incubation, cell media is collected and the concentration of TNF-α is measured by ELISA (Invitrogen, KRC3011) according to the manufacturer's instruction.
The effects of selected compounds on cellular inflammatory response to LPS are determined in primary microglia extracted from a rat. Briefly, mixed glial cells are obtained from the cerebral cortex of Sprague Dawley rat pups at postnatal days 1-3 and cultured in DMEM supplemented with 10% fetal bovine serum. After 7 days in vitro, microglia are harvested by gentle shaking of the growth flask and plated in a 96 well plate at the density of 3×10^4 cells/well. The cells are used following day. Effects of compounds on LPS-induced TNFα production are determined by incubating cells with LPS along with or without test compounds for 4 hours. Following the 4 hour incubation, cell media are collected and concentration of TNFα was measured by EUSA.

[2] = tested on: LPS-induced TNF-α response; experiment: In vivo LPS assay; set-up: species or system C57BI/6J mice; conditions: mice, 3 mg/kg 15 min prior to LPS, 90 min post-LPS
Procedure: Amplification is performed using StepOnePlus (Applied Biosystems).
Following injections, mice are single-housed. At 90 min post-LPS/saline, mice are deeply anesthetized with isoflurane and blood is collected from the right ventricle via cardiac puncture (23 g needle) into lithium heparin-containing vials (BD microtainer plasma tubes). Plasma is separated by centrifugation (11,000 rpm for 3 minutes) within 30 min of collection and stored at −80° C. until analysis. The concentration of TNF-α in the collected plasma is measured by ELISA (Invitrogen, KMC3012) according to the manufacturer's instruction.

[3] = tested on: tMCAO rat model of stroke; experiment: tMCAO model of stroke, Paw-Whisker test of sensorimotor function; type: in vivo; conditions: 3 mg/kg then 0.3 mg/kg daily subcutaneous, 28 days
Procedure: The tMCAO is performed on animal under isoflurane inhalation anesthesia (4% for induction and 1.5-2.5% for maintenance) in airoxygen mixture ratio 3:1. Ventral neck area is shaved by electric razor and disinfected using betadine followed by 70% ethanol solution. Subsequently, a midline incision is made in the ventral neck area, sharp and blunt dissection techniques are used to isolate left common carotid artery (CCA) and the internal and external carotid arteries (ICA and ECA, respectively). The proximal CCA is ligated below the bifurcation using 3-0 braided silk suture allowing enough room for filament insertion in the area between the ligation and bifurcation. Subsequently, ECA is ligated at its origin dose to the CCA bifurcation, so that the occipital artery stays proximal to the ligature. A microvessel dip is placed on ICA temporarily to avoid excessive bleeding during filament insertion. In order to occlude the origin of middle cerebral artery (MCA), a monofilament with silicon coated tip (0.39 mm diameter, 5-6 mm long) is then inserted into the CCA, the microvessel dip removed following filament advancement into the ICA 20 mm from the bifurcation through small, horizontal incision. […] Sensorimotor function was measured by the Paw-Whisker test (vibrissae-evoked forelimb placing) once a week until 4 weeks post stroke. […]

[4] = tested on: 5XFAD mice; experiment: Chronic xamoterol in 5XFAD mouse model of Alzheimer's disease, cortex qRT-PCR of inflammation genes; conditions: 3 mg/kg/day by mini-osmotic pump, 2.5 months

| SMILES | inhibition at 10 µM [1] | LPS-induced TNF-α response in periphery (plasma) [2] | LPS-induced inflammatory response in the brain (TNF-α, IL-1β, IL-6 gene expression) [2] | sensorimotor function [3] | expression of inflammation genes in cortex [4] |
| --- | --- | --- | --- | --- | --- |
| COc1ccccc1OCCNC[C@H](O)COc1ccc(O)cc1 [Compound 43] | ~55% | markedly inhibited | attenuated |  |  |
| O=C(NCCNCC(O)COc1ccc(O)cc1)N1CCOCC1 (centres unmarked) [Xamoterol, reference compound] |  |  |  | improves sensorimotor function | attenuated elevated expression of Iba1, CD74, CD14 and TGFb |
